According to patent US20250271419A1, “PLACENTA ORGANOID ON-A-CHIP AND USE THEREOF” (THE REGENTS OF THE UNIVERSITY OF CALIFORNIA, priority 2024, published 2025):
Like-named read-outs stand apart in the source and are kept apart here.

Assays:
[1] = test system: day 7 placental organoids; assay: Drug toxicity response, CellTiter-Glo luminescent cell viability, day 7 placental organoids; conditions: Homo sapiens, read-out: IC50 (drug toxicity based on cell survival)
Source text: It is well-established that ethical constraints hamper the testing of drugs on pregnant women. Furthermore, maternal drug usage is known to promote a range of conditions, such as fetal drug tolerance, antibiotic resistance, toxicity, obesity and diabetes. While it is rendered safe to use certain drugs during pregnancy, the actual short as well as long-term effects of these drugs on fetal health cannot be currently studied. Therefore, as an application of the placental organoids systems in drug toxicity testing, these organoids were treated with commonly used compounds such as nicotine, acetaminophen, ibuprofen and lumiracoxib. […] Acetaminophen, also known as paracetamol, is usually considered as a safe antipyretic and analgesic medicine for pregnant women. However, acetaminophen and its metabolites easily cross the placenta and are potentially toxic as it has previously been detected in the fetus and is implicated in adverse birth and later life health outcomes. Nonsteroidal anti-inflammatory drugs (NSAIDs) such as Ibuprofen are the most commonly used medications for the treatment of pain, inflammation and fever during pregnancy. Ibuprofen readily enters fetal circulation, raising concerns about its long-term effects on fetal health and development. While the use of another NSAID, Lumiracoxib, has not been adequately investigated. […] Therefore, it has been recommended that it should not be used during the first two trimesters of pregnancy unless it justifies the potential risk to the fetus. Day 7and day 15 placental organoids were treated with increasing doses of drugs such as nicotine, acetaminophen, ibuprofen and lumiracoxib. The drug toxicity and IC50 value of the drugs was determined based on cell survival at 24 and 48 hours post drug exposure.
Placental organoids (12-15 organoids/well) were treated with different concentrations of nicotine (0.1, 0.5, 1, 5, 10, 20 mg/mL), acetaminophen (0.01, 0.1, 1, 5, 10, 20 mM), ibuprofen (25, 50, 100, 200, 400, 800 mg/mL) and lumiracoxib (0.01, 0.1, 1, 5, 10, 20 mM) for 24 and 48 hours to determine the IC50 value for drug toxicity. Post-incubation with the drugs for 24 and 48 hours respectively, the cell viability was determined using a CellTiter-Glo Luminescent cell viability assay (Promega #G7570). Briefly, cell supernatant was mixed with equal volume of CellTiter-Glo reagent for 2 minutes on an orbital shaker, incubated for 10 minutes in dark at room temperature and then the luminescence was determined using a Tecan plate reader (Tecan Spark).

[2] = crosses the placental barrier; cited from earlier work

Row | Compound | IC50 ([1]; 24 hours post drug exposure) | IC50 ([1]; 48 hours post drug exposure) | fetal concentration higher than mother [2] [%]
1 | CC(=O)Nc1ccc(O)cc1 [acetaminophen] | 2680 µM | 1110 µM | 
2 | CC(C)Cc1ccc(C(C)C(=O)O)cc1 (centres unmarked) [ibuprofen] |  | 45300 µg/mL | 
3 | Cc1ccc(Nc2c(F)cccc2Cl)c(CC(=O)O)c1 [lumiracoxib] | 841 µM | 220 µM | 
4 | CN1CCCC1c1cccnc1 (centres unmarked) [nicotine] | 5700 µg/mL | 1190 µg/mL | 15
